Results as given in patent publication US8338450B2, “Compounds as dipeptidyl peptidase IV (DPP IV) inhibitors” (Lupin Limited, priority 2007, dated 2012).
pIC50: −log10 of the molar value. Where a name gives a salt, the structure may show the parent alone.

What follows are molecules tested against T1, human recombinant DPP-IV (Homo sapiens, UniProt P27487) (assay: Inhibition of human recombinant DPP-IV (Gly-Pro-AMC hydrolysis, fluorometric)). Conditions: compound 10 nM; relative to vehicle controls.
T1 construct: purchased R&D Systems, USA (or produced in-house)
T1 sequence (P27487 whole entry): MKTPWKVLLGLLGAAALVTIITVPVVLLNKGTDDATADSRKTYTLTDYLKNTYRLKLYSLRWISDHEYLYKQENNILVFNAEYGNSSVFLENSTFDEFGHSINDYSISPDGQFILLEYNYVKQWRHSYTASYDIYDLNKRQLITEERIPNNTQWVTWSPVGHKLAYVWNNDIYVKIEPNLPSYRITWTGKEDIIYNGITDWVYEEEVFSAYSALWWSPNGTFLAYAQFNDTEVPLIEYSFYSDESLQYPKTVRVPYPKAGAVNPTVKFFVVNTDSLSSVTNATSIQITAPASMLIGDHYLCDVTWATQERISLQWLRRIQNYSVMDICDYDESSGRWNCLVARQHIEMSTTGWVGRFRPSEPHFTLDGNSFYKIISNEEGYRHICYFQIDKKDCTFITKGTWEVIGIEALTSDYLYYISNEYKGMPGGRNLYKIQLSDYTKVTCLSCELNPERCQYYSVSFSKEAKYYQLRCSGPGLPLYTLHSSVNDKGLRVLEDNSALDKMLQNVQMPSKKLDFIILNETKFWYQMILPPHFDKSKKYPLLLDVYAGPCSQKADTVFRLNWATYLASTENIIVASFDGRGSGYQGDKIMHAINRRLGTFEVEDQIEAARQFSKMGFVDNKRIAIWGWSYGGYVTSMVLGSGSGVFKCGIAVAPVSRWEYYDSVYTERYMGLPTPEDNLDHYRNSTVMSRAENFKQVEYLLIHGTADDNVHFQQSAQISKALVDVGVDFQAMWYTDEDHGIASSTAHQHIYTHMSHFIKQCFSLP
Assay type: biochemical
Procedure: Inhibition of Human Recombinant DPP-IV
The proteolytic activity of human recombinant DPP-IV was determined by following the hydrolysis of Gly-Pro-7-amino-4-methylcoumarin (Gly-Pro-AMC) and the fluorometric quantitation of the liberated AMC. Assays were routinely carried out in 96-well flat-bottom black microwell plates. The reaction mixture (100 μl) contained 10 ng of human recombinant DPP-IV enzyme (produced in-house or procured from R&D Systems, USA) in the assay buffer (25 mM Tris-HCl, pH 7.4, 140 mM NaCl, 10 mM KCl and 0.1 mg/ml BSA) and 50 μM Gly-Pro-AMC. After incubation of assay plates at 30° C. for 30 min, the hydrolysis of Gly-Pro-AMC was monitored in a fluorescence microplate reader (Molecular Devices SpectraMax M5), with excitation and emission wavelengths set at 360 nm and 460 nm, respectively.
The inhibition of DPP-IV activity by test compounds was routinely performed by preincubating the enzyme with test compound (10 and 100 nM for primary screening and 8 concentrations from 0.1 to 1000 nM for the dose-response study) or vehicle (0.01% DMSO) for 15 min at 30° C., in a total volume of 90 μl. Test compounds were dissolved in DMSO at a concentration of 10 mM and serially diluted further in assay buffer. The enzyme reaction was initiated by the addition of Gly-Pro-AMC, followed by incubation of assay plates for 30 min at 30° C. and the liberated AMC was measured as described above. A known inhibitor of DPP-IV (positive control) was always included in the assay. Test compounds at various concentrations were always evaluated in duplicate, along with substrate blanks, vehicle controls and positive controls.
The results are expressed as percent inhibition of the enzyme activity relative to vehicle controls. Dose-response studies were conducted for those compounds exerting ≧50% inhibition of activity at 10 nM in primary screening. IC50, defined as the inhibitor concentration which caused a 50% decrease of the activity under assay conditions, was computed using GraphPad Prism software, version 5.0.
The DPP-IV inhibition data (expressed either as IC50 in nanomolar or percent inhibition at a particular compound concentration) is presented in Table 1.
In the case of N#C[C@@H]1C[C@@H]2C[C@@H]2N1C(=O)[C@@H](N)C1CC2CCC(C1)N2C(=O)c1ccco1.O=C(O)C(F)(F)F (stereo partly drawn) [Compound 40, (1S,3S,5S)-2-{(2S)-2-Amino-2-[8-(furan-2-carbonyl)-8-aza-bicyclo[3.2.1]oct-3-yl]-exo-ethanoyl}-2-azabicyclo[3.1.0]hexane-3-carbonitrile trifluoroacetic acid salt], the “% inhibition at 10 nM” value was 44% inhibition at 10 nM. N#C[C@@H]1C[C@@H]2C[C@@H]2N1C(=O)[C@@H](N)C1CC2CCC(C1)N2C1CCCCC1.O=C(O)C(F)(F)F (stereo partly drawn) [Compound 60, (1S,3S,5S)-2-{(2S)-2-Amino-2-(8-cyclohexyl-8-aza-bicyclo[3.2.1]oct-3-yl)-exo-ethanoyl}-2-azabicyclo[3.1.0]hexane-3-carbonitrile trifluoroacetic acid salt] was tested, and the “% inhibition at 10 nM” value was 10% inhibition at 10 nM. With CCC(CC)N1C2CCC1CC([C@H](N)C(=O)N1[C@H](C#N)C[C@@H]3C[C@@H]31)C2.O=C(O)C(F)(F)F (stereo partly drawn) [Compound 59, (1S,3S,5S)-2-{(2S)-2-Amino-2-[8-(1-ethyl-propyl)-8-aza-bicyclo[3.2.1]oct-3-yl]-exo-ethanoyl}-2-azabicyclo[3.1.0]hexane-3-carbonitrile trifluoroacetic acid salt] the “% inhibition at 10 nM” value was 34% inhibition at 10 nM. In the case of N#C[C@@H]1C[C@@H]2C[C@@H]2N1C(=O)[C@@H](N)C1CC2CCC(C1)N2Cc1ccncc1.O=C(O)C(F)(F)F (stereo partly drawn) [Compound 55, (1S,3S,5S)-2-{(2S)-2-Amino-2-[8-(pyridin-4-yl-methyl)-8-aza-bicyclo[3.2.1]oct-3-yl]-exo-ethanoyl}-2-azabicyclo[3.1.0]hexane-3-carbonitrile trifluoroacetic acid salt], the “% inhibition at 10 nM” value was 45% inhibition at 10 nM. N#C[C@@H]1C[C@@H]2C[C@@H]2N1C(=O)[C@H](N)C1CC2CCC(C1)N2C(=O)c1cnccn1.O=C(O)C(F)(F)F (stereo partly drawn) [Compound 36, (1S,3S,5S)-2-{(2R)-2-Amino-2-[8-(pyrazine-2-carbonyl)-8-aza-bicyclo[3.2.1]oct-3-yl]-exo-ethanoyl}-2-azabicyclo[3.1.0]hexane-3-carbonitrile trifluoroacetic acid salt] was tested, and the “% inhibition at 10 nM” value was 17% inhibition at 10 nM. For N#Cc1ccc(N2C3CCC2CC([C@H](N)C(=O)N2[C@H](C#N)C[C@@H]4C[C@@H]42)C3)cc1.O=C(O)C(F)(F)F (stereo partly drawn) [Compound 52, (1S,3S,5S)-2-{(2S)-2-Amino-2-[8-(4-cyano-phenyl)-8-aza-bicyclo[3.2.1]oct-3-yl]-exo-ethanoyl}-2-azabicyclo[3.1.0]hexane-3-carbonitrile trifluoro acetic acid salt], the “% inhibition at 10 nM” value was 25% inhibition at 10 nM.

Same assay, conditions: compound 10 nM; relative to vehicle controls; read-out: % inhibition at 10 nM
Molecule N#C[C@H]1CC[C@@H](C(=O)OCc2ccccc2)N1C(=O)[C@@H](N)C1CC2CCC(C1)N2C(=O)c1ccc(C(F)(F)F)cc1 (stereo partly drawn) [Compound 18, Benzyl-(2S,5R)-1-{(2S)-2-amino-2-[8-(4-trifluoromethyl-benzoyl)-8-aza-bicyclo[3.2.1]-oct-3-yl]-exo-ethanoyl}-5-cyano pyrrolidin-2-carboxylate trifluoroacetic acid salt] has an inhibition at 0.01 µM of 1.11%.

Same assay, conditions: compound 100 nM; relative to vehicle controls
N#C[C@@H]1C[C@@H]2C[C@@H]2N1C(=O)[C@@H](N)C1CC2CCC(C1)N2CC12CC3CC(CC(C3)C1)C2.O=C(O)C(F)(F)F (stereo partly drawn) [Compound 49, (1S,3S,5S)-2-{(2S)-2-Amino-2-[8-(adamantan-1-ylmethyl)-8-aza-bicyclo[3.2.1]oct-3-yl]-exo-ethanoyl}-2-azabicyclo[3.1.0]hexane-3-carbonitrile trifluoroacetic acid salt] was tested, and the “% inhibition at 100 nM” value was 60% inhibition at 100 nM.

Same assay, conditions: human recombinant DPP-IV, 50 μM Gly-Pro-AMC, 30 min at 30° C.
Work on N#C[C@@H]1C[C@@H]2C[C@@H]2N1C(=O)[C@@H](N)C1CC2CCC(C1)N2C(=O)c1cc(F)ccc1F (stereo partly drawn) [Compound 27, (1S,3S,5S)-2-{(2S)-2-Amino-2-[8-(2,5-difluorobenzoyl)-8-aza-bicyclo[3.2.1]oct-3-yl]-exo-ethanoyl}-2-azabicyclo[3.1.0]hexane-3-carbonitrile trifluoroacetic acid salt] yielded a pIC50 of 7.76. N#C[C@@H]1CCCN1C(=O)[C@@H](N)C1CC2CCC(C1)N2C(=O)c1ccnc(F)c1 (stereo partly drawn) [Compound 7, (2S)-1-{(2S)-2-Amino-2-[8-(2-fluoro-pyridine-4-carbonyl)-8-aza-bicyclo[3.2.1]oct-3-yl]-exo-ethanoyl}-pyrrolidin-2-carbonitrile trifluoroacetic acid salt] gave a pIC50 of 8.72. N#C[C@@H]1C[C@@H]2C[C@@H]2N1C(=O)[C@@H](N)C1CC2CCC(C1)N2C(=O)c1cccnc1 (stereo partly drawn) [Compound 33, (1S,3S,5S)-2-{(2S)-2-Amino-2-[8-(pyridine-3-carbonyl)-8-aza-bicyclo[3.2.1]oct-3-yl]-exo-ethanoyl}-2-azabicyclo[3.1.0]hexane-3-carbonitrile di trifluoroacetic acid salt] showed a pIC50 of 8.03. N[C@H](C(=O)N1CCSC1)C1CC2CCC(C1)N2C(=O)c1ccc(C(F)(F)F)cc1 (stereo partly drawn) [Compound 21, 3-{(2S)-2-Amino-2-[8-(4-trifluoromethyl-benzoyl)-8-aza-bicyclo[3.2.1]-oct-3-yl]-exo-ethanoyl}-1,3-thiazolidin trifluoroacetic acid salt] was tested, and the pIC50 was 7.75. In the case of N#C[C@@H]1C[C@@H]2C[C@@H]2N1C(=O)[C@@H](N)C1CC2CCC(C1)N2S(=O)(=O)c1cccs1 (stereo partly drawn) [Compound 57, (1S,3S,5S)-2-{(2S)-2-Amino-2-[8-(thiophene-2-sulfonyl)-8-aza-bicyclo[3.2.1]oct-3-yl]-exo-ethanoyl}-2-azabicyclo[3.1.0]hexane-3-carbonitrile trifluoroacetic acid salt], the pIC50 was 8.10. Molecule C#C[C@H]1CC[C@@H](C#N)N1C(=O)[C@@H](N)C1CC2CCC(C1)N2C(=O)c1ccncc1 (stereo partly drawn) [Compound 64, (2S,5R)-1-{(2S)-2-Amino-2-[8-(pyridin-4-carbonyl)-8-aza-bicyclo[3.2.1]oct-3-yl]-exo-ethanoyl}-5-ethynyl-pyrrolidin-2-carbonitrile di trifluoro acetic acid salt] has a pIC50 of 7.96. Molecule N#C[C@@H]1C[C@@H]2C[C@@H]2N1C(=O)[C@@H](N)C1CC2CCC(C1)N2C(=O)c1ccc2c(c1)OCO2 (stereo partly drawn) [Compound 44, (1S,3S,5S)-2-{(2S)-2-Amino-2-[8-(benzo[1,3]-dioxole-5-carbonyl)-8-aza-bicyclo[3.2.1]oct-3-yl]-exo-ethanoyl}-2-azabicyclo[3.1.0]-hexane-3-carbonitrile trifluoroacetic acid salt] has a pIC50 of 8.62. N#C[C@@H]1C[C@@H]2C[C@@H]2N1C(=O)[C@@H](N)C1CC2CCC(C1)N2C(=O)Cc1ccncc1 (stereo partly drawn) [Compound 54, (1S,3S,5S)-2-{(2S)-2-Amino-2-[8-(2-pyridin-4-yl-acetyl)-8-aza-bicyclo[3.2.1]oct-3-yl]-exo-ethanoyl}-2-azabicyclo[3.1.0]hexane-3-carbonitrile di trifluoroacetic acid salt] showed a pIC50 of 8.48. Work on N#C[C@H]1CSCN1C(=O)[C@@H](N)C1CC2CCC(C1)N2C(=O)c1ccc(C(F)(F)F)cc1 (stereo partly drawn) [Compound 20, (4S)-3-{(2S)-2-Amino-2-[8-(4-trifluoromethyl-benzoyl)-8-aza-bicyclo[3.2.1]oct-3-yl]-exo-ethanoyl}-thiazolidin-4-carbonitrile trifluoroacetetic acid salt] yielded a pIC50 of 8.55.
